Patent publication US20070122451A1, “Biogically non-degradable peptides, angiostensin converting enzyme inhibitor, drug and functional food” (Calpis Co., Ltd., priority 2003, published 2007)
Peptide text beside a SMILES is read from it.

biological target: T1, ACE derived from bovine lung (Bos taurus, UniProt P12820); assay: Evaluation of ACE inhibitory activity (hippuryl-histidyl-leucine substrate, absorbance at 228 nm); format: biochemical; settings: peptide concentration at which ACE inhibitory effect was 50%; 37° C., 30 minutes, pH 8.3 borate buffer
T1 construct: ACE derived from bovine lung; host or cells: bovine lung tissue
T1 sequence (P12820 29-1306): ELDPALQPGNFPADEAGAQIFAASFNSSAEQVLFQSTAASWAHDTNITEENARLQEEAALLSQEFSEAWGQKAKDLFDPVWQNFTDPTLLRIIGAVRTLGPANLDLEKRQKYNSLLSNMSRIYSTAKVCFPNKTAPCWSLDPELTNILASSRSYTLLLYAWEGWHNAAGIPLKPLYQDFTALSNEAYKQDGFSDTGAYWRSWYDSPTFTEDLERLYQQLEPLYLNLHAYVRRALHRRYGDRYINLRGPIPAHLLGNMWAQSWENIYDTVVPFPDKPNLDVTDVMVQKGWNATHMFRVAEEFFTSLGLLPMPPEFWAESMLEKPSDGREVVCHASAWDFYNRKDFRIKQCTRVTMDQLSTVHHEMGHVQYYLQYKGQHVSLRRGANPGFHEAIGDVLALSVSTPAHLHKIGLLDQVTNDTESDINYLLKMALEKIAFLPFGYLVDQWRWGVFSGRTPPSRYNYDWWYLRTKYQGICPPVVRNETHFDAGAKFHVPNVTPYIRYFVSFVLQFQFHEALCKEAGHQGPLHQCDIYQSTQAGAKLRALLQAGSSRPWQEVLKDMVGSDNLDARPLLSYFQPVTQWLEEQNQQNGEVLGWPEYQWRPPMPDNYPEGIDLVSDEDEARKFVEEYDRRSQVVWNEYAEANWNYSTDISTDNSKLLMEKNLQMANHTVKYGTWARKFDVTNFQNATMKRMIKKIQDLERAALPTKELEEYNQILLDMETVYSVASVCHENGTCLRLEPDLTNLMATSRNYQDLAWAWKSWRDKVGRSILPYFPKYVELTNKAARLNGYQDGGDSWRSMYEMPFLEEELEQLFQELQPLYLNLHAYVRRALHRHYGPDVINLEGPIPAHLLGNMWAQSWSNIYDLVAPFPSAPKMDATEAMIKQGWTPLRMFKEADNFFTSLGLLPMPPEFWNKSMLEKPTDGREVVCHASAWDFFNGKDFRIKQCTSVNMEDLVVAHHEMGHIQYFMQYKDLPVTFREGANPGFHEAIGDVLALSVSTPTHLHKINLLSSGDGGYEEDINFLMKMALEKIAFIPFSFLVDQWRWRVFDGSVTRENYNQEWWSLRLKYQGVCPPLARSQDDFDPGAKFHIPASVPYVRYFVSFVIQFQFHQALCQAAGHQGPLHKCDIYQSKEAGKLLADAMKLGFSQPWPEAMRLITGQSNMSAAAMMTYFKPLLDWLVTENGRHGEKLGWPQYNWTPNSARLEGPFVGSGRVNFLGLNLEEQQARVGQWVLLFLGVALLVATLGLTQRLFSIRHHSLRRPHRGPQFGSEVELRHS
Protocol: Solutions of each of these peptides at various concentrations were prepared, and measured for the ACE inhibitory activity in accordance with the method discussed below. The peptide concentration (μM) at which the ACE inhibitory effect was 50% was taken as IC50 value.
<Evaluation of ACE Inhibitory Activity>
ACE derived from bovine lung (manufactured by WAKO PURE CHEMICAL […], LTD.) was dissolved in a 0.1M borate buffer at pH 8.3 in an amount of 0.1 U, to obtain an ACE solution. […] Subsequently, the reaction was terminated by adding 250 μl of 1N hydrochloric acid (manufactured by WAKO PURE CHEMICAL […], LTD.). 1.7 ml of ethyl acetate (manufactured by WAKO PURE CHEMICAL […], LTD.) was then added, and stirred. 1.4 ml of the ethyl acetate layer was taken, placed in another tube, and evaporated at 120° C. for about 60 minutes to obtain a dried product. The dried product was dissolved in 1 ml of distilled water, and the absorbance at 228 nm of hippuric acid extracted with ethyl acetate was measured. As controls, absorbance was measured of a solution without the diluted solution and a solution without the diluted solution and the ACE solution. From the obtained absorbance, ACE inhibitory activity was calculated in accordance with the following formula. ACE inhibitory activity (%)=[(A−B)/A]×100 • A: (Absorbance of solution without diluted solution but with ACE solution)—(Absorbance of solution without diluted solution and ACE solution)
B: (Absorbance of solution with diluted solution and ACE solution)—(Absorbance of solution with diluted solution but without ACE solution)

| Compound | IC50 |
| --- | --- |
| NC(N)=NCCC[C@H](N)C(=O)N1CCC[C@H]1C(=O)O [Arg-Pro] (H-Arg-Pro-OH) | 275 µM |
| CC[C@H](C)[C@H](N)C(=O)N1CCC[C@H]1C(=O)O [Ile-Pro] (H-Ile-Pro-OH; N-terminus and C-terminus assumed) | 444 µM |

Next, values leading:

| IC50 | Compound |
| --- | --- |
| 65.8 µM | NC(=O)CC[C@H](N)C(=O)N1CCC[C@H]1C(=O)O [Gln-Pro] (H-Gln-Pro-OH) |
| 175 µM | N[C@@H](CCC(=O)O)C(=O)N1CCC[C@H]1C(=O)O [Glu-Pro] (H-Glu-Pro-OH; N-terminus and C-terminus assumed) |
| 135 µM | CSCC[C@H](N)C(=O)N1CCC[C@H]1C(=O)O [Met-Pro] (H-Met-Pro-OH; N-terminus and C-terminus assumed) |
